What was measured:
[1] = tested on: ATCC35218 E. coli blaTEM-1; assay: Disc diffusion susceptibility testing; settings: 10 μg of ampicillin and each inhibitor, MH agar, 37 °C, 18 h
PDC-3 β-lactamase = PDC-3 β-lactamase (Pseudomonas aeruginosa, UniProt P24735, T105A); assay: Inhibition of nitrocefin hydrolysis; assay type: biochemical
β-lactamases = settings: serve as excellent substrates of the β-lactamases; ref 27 (Fisher et al.); cited from earlier work

`CC1(C)S[C@@H]2[C@H](NC(=O)[C@H](N)c3ccccc3)C(=O)N2[C@H]1C(=O)O` [Ampicillin, ampicillin] showed a Zone diameter [1] of 6 mm.
Compound `O=C(O)[C@H]1/C(=C/CO)O[C@@H]2CC(=O)N21` [Clavulanic acid, clavulanic acid] has an IC50 (PDC-3 β-lactamase) greater than 100 µM.
In the case of `CC1(C)[C@H](C(=O)O)N2C(=O)[C@@H](NC(=O)Cc3ccccc3)[C@H]2S1(=O)=O` [compound 19, penicillin G sulfone], the β-Lactamase inhibition (β-lactamases) is given as “poor β-lactamase inhibitors”.

Source: publication PMC3319978 (Biochemical Pharmacology, 2011)
